Results from patent US20150105252A1, “SUBSTITUTED PYRAZOLES AS HERBICIDES” (E I DU PONT DE NEMOURS AND COMPANY, priority 2013, published 2015).

Columns and labels:
barnyardgrass [1] = experiment: Test A preemergence; format: in vivo, Echinochloa crus-galli; conditions: 0 to 100 scale
Text: (§1) Seeds of plant species selected from barnyardgrass (Echinochloa crus-galli), kochia (Kochia scoparia), common ragweed (Ambrosia elation), Italian ryegrass (Lolium multiflorum), crabgrass, large (large crabgrass, Digitaria sanguinalis), foxtail, giant (giant foxtail, Setaria faberii), morningglory (Ipomoea spp.), pigweed (redroot pigweed, Amaranthus retroflexus), velvetleaf (Abutilon theophrasti), wheat (Triticum aestivum), and corn (Zea mays) were planted into a blend of loam soil and sand and treated preemergence with a directed soil spray using test chemicals formulated in a non-phytotoxic solvent mixture which included a surfactant.
(§2) At the same time, plants selected from these crop and weed species and also blackgrass (Alopecurus myosuroides), and galium (catchweed bedstraw, Galium aparine) were planted in pots containing the same blend of loam soil and sand and treated with postemergence applications of test chemicals formulated in the same manner. Plants ranged in height from 2 to 10 cm and were in the one- to two-leaf stage for the postemergence treatment. Treated plants and untreated controls were maintained in a greenhouse for approximately 10 days, after which time all treated plants were compared to untreated controls and visually evaluated for injury. Plant response ratings, summarized in Table A, are based on a 0 to 100 scale where 0 is no effect and 100 is complete control. A dash (-) response means no test result.

crabgrass, large [2] = experiment: Test A preemergence; format: in vivo, Digitaria sanguinalis; conditions: 0 to 100 scale
Text: as §1, §2

foxtail, giant [3] = experiment: Test A preemergence; format: in vivo, Setaria faberii; conditions: 0 to 100 scale
Text: as §1, §2

morningglory [4] = experiment: Test A preemergence; format: in vivo, Ipomoea spp.; conditions: 0 to 100 scale
Text: as §1, §2

pigweed [5] = experiment: Test A preemergence; format: in vivo, Amaranthus retroflexus; conditions: Preemergence, 0 to 100 scale, 0 no effect, 100 complete control
Text: as §1, §2

velvetleaf [6] = experiment: Test A preemergence; format: in vivo, Abutilon theophrasti; conditions: 0 to 100 scale
Text: as §1, §2

wheat [7] = experiment: Test A preemergence; format: in vivo, Triticum aestivum; conditions: 0 to 100 scale
Text: as §1, §2

corn [8] = experiment: Test A preemergence; format: in vivo, Zea mays; conditions: 0 to 100 scale
Text: as §1, §2

barnyardgrass [9] = experiment: Test A postemergence; format: in vivo, Echinochloa crus-galli; conditions: Postemergence
Text: as §1, §2

crabgrass, large [10] = experiment: Test A postemergence; format: in vivo, Digitaria sanguinalis
Text: as §1, §2

foxtail, giant [11] = experiment: Test A postemergence; format: in vivo, Setaria faberii
Text: as §1, §2

morningglory [12] = experiment: Test A postemergence; format: in vivo, Ipomoea spp.
Text: as §1, §2

pigweed [13] = experiment: Test A postemergence; format: in vivo, Amaranthus retroflexus
Text: as §1, §2

velvetleaf [14] = experiment: Test A postemergence; format: in vivo, Abutilon theophrasti
Text: as §1, §2

wheat [15] = experiment: Test A postemergence; format: in vivo, Triticum aestivum
Text: as §1, §2

corn [16] = experiment: Test A postemergence; format: in vivo, Zea mays
Text: as §1, §2

[17] = Preemergence, 1000 g ai/ha, 0 no effect, 100 complete control
[18] = 1000 g ai/ha, visual rating after approx. 10 days, 0 to 100 scale (0 no effect, 100 complete control)
[19] = Postemergence, 1000 g ai/ha, visual rating after approx. 10 days, 0 to 100 scale (0 no effect, 100 complete control)
[20] = Preemergence, 500 g ai/ha, 0 no effect, 100 complete control
[21] = preemergence, 125 g ai/ha, visual injury, approx. 10 days
[22] = Postemergence, 500 g ai/ha, visual rating after approx. 10 days, 0 to 100 scale (0 no effect, 100 complete control)
[23] = postemergence, 125 g ai/ha, about 10 days, visual rating on 0 to 100 scale (0 no effect, 100 complete control)
[24] = Preemergence, 2000 g ai/ha, 0 no effect, 100 complete control
[25] = Postemergence, 125 g ai/ha, 0 to 100 scale, 0 no effect, 100 complete control

C#CCNC(=O)c1cc(CC)n(Cc2cccc(OC(F)(F)F)c2)n1 [Compound 54]
Barnyardgrass plant response rating (barnyardgrass [1]; [17]): 10 | Crabgrass, Large plant response rating (crabgrass, large [2]; [17]): 40 | Foxtail, Giant plant response rating (foxtail, giant [3]; [17]): 20 | Morningglory plant response rating (morningglory [4]; [17]): 0 | Pigweed plant response rating (pigweed [5]; 1000 g ai/ha): 90 | Velvetleaf plant response rating (velvetleaf [6]; [17]): 0 | Wheat plant response rating (wheat [7]; [17]): 0 | Corn plant response rating (corn [8]; [17]): 0 | Barnyardgrass plant response rating (barnyardgrass [9]; [18]): 10 | Crabgrass, Large plant response rating (crabgrass, large [10]; [19]): 10 | Foxtail, Giant plant response rating (foxtail, giant [11]; [19]): 10 | Morningglory plant response rating (morningglory [12]; [19]): 70 | Pigweed plant response rating (pigweed [13]; [19]): 70 | Velvetleaf plant response rating (velvetleaf [14]; [19]): 60 | Wheat plant response rating (wheat [15]; [19]): 10 | Corn plant response rating (corn [16]; [19]): 20

O=C(NCC(F)(F)F)c1cc(C2CC2)n(Cc2cccc(OC(F)(F)F)c2)n1 [Compound 36]
Barnyardgrass plant response rating (barnyardgrass [1]; [17]): 0 | Crabgrass, Large plant response rating (crabgrass, large [2]; [17]): 20 | Foxtail, Giant plant response rating (foxtail, giant [3]; [17]): 20 | Morningglory plant response rating (morningglory [4]; [17]): 0 | Pigweed plant response rating (pigweed [5]; 1000 g ai/ha): 30 | Velvetleaf plant response rating (velvetleaf [6]; [17]): 0 | Wheat plant response rating (wheat [7]; [17]): 0 | Corn plant response rating (corn [8]; [17]): 0 | Barnyardgrass plant response rating (barnyardgrass [9]; [18]): 20 | Crabgrass, Large plant response rating (crabgrass, large [10]; [19]): 30 | Foxtail, Giant plant response rating (foxtail, giant [11]; [19]): 30 | Morningglory plant response rating (morningglory [12]; [19]): 90 | Pigweed plant response rating (pigweed [13]; [19]): 90 | Velvetleaf plant response rating (velvetleaf [14]; [19]): 60 | Wheat plant response rating (wheat [15]; [19]): 0 | Corn plant response rating (corn [16]; [19]): 20

O=C(NC1CC1)c1cc(C2CC2)n(Cc2cccc(OC(F)(F)F)c2)n1 [Compound 37]
Barnyardgrass plant response rating (barnyardgrass [1]; [17]): 0 | Crabgrass, Large plant response rating (crabgrass, large [2]; [17]): 40 | Foxtail, Giant plant response rating (foxtail, giant [3]; [17]): 30 | Morningglory plant response rating (morningglory [4]; [17]): 0 | Pigweed plant response rating (pigweed [5]; 1000 g ai/ha): 20 | Velvetleaf plant response rating (velvetleaf [6]; [17]): 0 | Wheat plant response rating (wheat [7]; [17]): 0 | Corn plant response rating (corn [8]; [17]): 0 | Barnyardgrass plant response rating (barnyardgrass [9]; [18]): 10 | Crabgrass, Large plant response rating (crabgrass, large [10]; [19]): 20 | Foxtail, Giant plant response rating (foxtail, giant [11]; [19]): 10 | Morningglory plant response rating (morningglory [12]; [19]): 80 | Pigweed plant response rating (pigweed [13]; [19]): 100 | Velvetleaf plant response rating (velvetleaf [14]; [19]): 70 | Wheat plant response rating (wheat [15]; [19]): 20 | Corn plant response rating (corn [16]; [19]): 30

Cc1cc(C(=O)NCC(F)(F)F)nn1Cc1cccc(C(F)(F)F)c1F [Compound 9]
Barnyardgrass plant response rating (barnyardgrass [1]; [20]): 10 | Barnyardgrass plant response rating (barnyardgrass [1]; [21]): 0 | Crabgrass, Large plant response rating (crabgrass, large [2]; [20]): 20 | Crabgrass, Large plant response rating (crabgrass, large [2]; [21]): 0 | Foxtail, Giant plant response rating (foxtail, giant [3]; [20]): 20 | Foxtail, Giant plant response rating (foxtail, giant [3]; [21]): 0 | Morningglory plant response rating (morningglory [4]; [20]): 0 | Morningglory plant response rating (morningglory [4]; [21]): 0 | Pigweed plant response rating (pigweed [5]; 500 g ai/ha): 30 | Velvetleaf plant response rating (velvetleaf [6]; [20]): 0 | Velvetleaf plant response rating (velvetleaf [6]; [21]): 0 | Wheat plant response rating (wheat [7]; [21]): 0 | Corn plant response rating (corn [8]; [20]): 0 | Corn plant response rating (corn [8]; [21]): 0 | Barnyardgrass plant response rating (barnyardgrass [9]; 125 g ai/ha, 0 to 100 scale, 0 no effect, 100 complete control): 0 | Barnyardgrass plant response rating (barnyardgrass [9]; 500 g ai/ha, visual rating after approx. 10 days, 0 to 100 scale (0 no effect, 100 complete control)): 10 | Crabgrass, Large plant response rating (crabgrass, large [10]; [22]): 0 | Crabgrass, Large plant response rating (crabgrass, large [10]; [23]): 0 | Foxtail, Giant plant response rating (foxtail, giant [11]; [22]): 0 | Foxtail, Giant plant response rating (foxtail, giant [11]; [23]): 0 | Morningglory plant response rating (morningglory [12]; [22]): 10 | Morningglory plant response rating (morningglory [12]; [23]): 0 | Pigweed plant response rating (pigweed [13]; [22]): 0 | Pigweed plant response rating (pigweed [13]; [23]): 0 | Velvetleaf plant response rating (velvetleaf [14]; [22]): 0 | Velvetleaf plant response rating (velvetleaf [14]; [23]): 0 | Wheat plant response rating (wheat [15]; [22]): 0 | Wheat plant response rating (wheat [15]; [23]): 0 | Corn plant response rating (corn [16]; [22]): 0 | Corn plant response rating (corn [16]; [23]): 0

Cc1cc(C(=O)NC2CC2)nn1Cc1cccc(C(F)(F)F)c1 [Compound 2]
Barnyardgrass plant response rating (barnyardgrass [1]; [24]): 90 | Crabgrass, Large plant response rating (crabgrass, large [2]; [24]): 100 | Morningglory plant response rating (morningglory [4]; [24]): 100 | Velvetleaf plant response rating (velvetleaf [6]; [24]): 100 | Barnyardgrass plant response rating (barnyardgrass [9]; [18]): 50 | Crabgrass, Large plant response rating (crabgrass, large [10]; [19]): 50 | Morningglory plant response rating (morningglory [12]; [19]): 80 | Velvetleaf plant response rating (velvetleaf [14]; [19]): 70

O=C(NC1CC1)c1cc(CCCl)n(Cc2ccnc(C(F)(F)F)c2)n1 [Compound 194]
Morningglory plant response rating (morningglory [12]; [25]): 50 | Pigweed plant response rating (pigweed [13]; [25]): 50 | Velvetleaf plant response rating (velvetleaf [14]; [25]): 60 | Wheat plant response rating (wheat [15]; [25]): 0
